This note sets out measurements from patent US6602826B1, “Heterocyclically substituted aromatic amino compounds with a herbicidal effect” (Bayer Aktiengesellschaft, priority 1997, dated 2003).

In one data set the test system is Avena fatua. The data set can be described thus: Pre-emergence test. The note with it: application rates between 250 and 750 g/ha, scored after three weeks vs untreated control, 0% = no action, 100% = total destruction. Format: in vivo. The method, then:
(§1) Solvent: 5 parts by weight of acetone
(§2) Emulsifier: 1 part by weight of alkylaryl polyglycol ether
(§3) To prepare a suitable preparation of active compound, 1 part by weight of active compound is mixed with the stated amount of solvent, the stated amount of emulsifier is added, and the concentrate is diluted with water to the desired concentration.
(§4) Seeds of the test plants are sown in normal soil. After approx. 24 hours, the soil is sprayed with the preparation of active compound in such a way that the desired amounts of active compound are in each case applied per unit area. The concentration of the spray mixture is chosen in such a way that the desired amounts of active compound are in each case applied in 1,000 liters of water/ha.
(§5) After three weeks, the degree of damage to the plants is scored in % damage in comparison with the development of the untreated control.

The next data set relates to Lolium. The data set can be described thus: Pre-emergence test. The note with it: application rates between 250 and 750 g/ha, scored after three weeks vs untreated control. Format: in vivo. The procedure:
as §1, §2, §3, §4, §5

The next data set concerns Matricaria. The data set can be described thus: Pre-emergence test. The note with it: application rates between 250 and 750 g/ha, scored after three weeks vs untreated control. Format: in vivo. The procedure: as §1, §2, §3, §4, §5
The test system of another data set is Solanum. The data set is described as follows: Pre-emergence test. Format: in vivo. The note with it: application rates between 250 and 750 g/ha, scored after three weeks vs untreated control. The procedure:
as §1, §2, §3, §4, §5

For a further data set, the system named is wheat. The data set can be described thus: Pre-emergence test (crop tolerance). The note with it: application rates between 250 and 750 g/ha, scored after three weeks vs untreated control. Format: in vivo. The method, then:
as §1, §2, §3, §4, §5

For a further data set, the system named is Abutilon. The data set is described as follows: Post-emergence test. Format: in vivo. The note with it: application rates of 15-750 g/ha, scored after three weeks vs untreated control. The procedure:
as §1, §2, §3
(§6) Test plants which have a height of 5-15 cm are sprayed with the preparation of active compound in such a way that the desired amounts of active compound are in each case applied per unit area. The concentration of the spray mixture is chosen in such a way that the amounts of active compound desired in each case are applied in 1,000 liters of water/ha.
as §5

A further data set deals with Galium. The data set is described as follows: Post-emergence test. Format: in vivo. The note with it: application rates of 15-750 g/ha, scored after three weeks vs untreated control. The procedure: as §1, §2, §3, §6, §5
A further data set relates to Sinapis. The data set is described as follows: Post-emergence test. Format: in vivo. The note with it: application rates of 15-750 g/ha, scored after three weeks vs untreated control. The method, then: as §1, §2, §3, §6, §5

Molecules are shown by their SMILES.

On to `CC(C)(C)C(=O)Nc1ccc(Cl)cc1-n1c(=O)cc(C(F)(F)F)[nH]c1=O`, for which the melting point was found to be 276 °C.

For `Cn1c(C(F)(F)F)cc(=O)n(-c2cc(Cl)ccc2NC(=O)C(C)(C)C)c1=O`, the melting point was 267 °C.

In the case of `Cn1c(C(F)(F)F)cc(=O)n(-c2ccc(Cl)cc2NC(=O)C(C)(C)C)c1=O` [Example 18], the “degree of damage to the plants, Avena fatua” value (“degree of damage … Avena fatua” below) in the data set with Avena fatua turned out to be 100%. Further, the “degree of damage to the plants, Lolium” value in the data set with Lolium stood at 100%. Besides, in the data set with Matricaria, the “degree of damage to the plants, Matricaria” value (from here on “degree of damage … Matricaria”) came out at 100%. In addition, the “degree of damage to the plants, Solanum” value in the data set with Solanum is reported as 100%. Besides, the “degree of damage to the plants, wheat (crop plant, tolerated well)” value (from here on “degree of damage to the plants, wheat”) in the data set with wheat is 0%. In the data set with Abutilon, the “degree of damage to the plants, Abutilon” value was determined as 100%. In addition, in the data set on Galium, the “degree of damage to the plants, Galium” value came out at 100%. The “degree of damage to the plants, Sinapis” value in the data set on Sinapis is reported as 100%.

Turning to `Cn1c(C(F)(F)F)cc(=O)n(-c2ccc(Cl)cc2NC(=O)C2CC2)c1=O` [Example 19], the “degree of damage … Avena fatua” value with Avena fatua turned out to be 100%. Also, the “degree of damage to the plants, Lolium” value in the data set on Lolium was 100%. Also, the “degree of damage … Matricaria” value with Matricaria worked out at 100%. The “degree of damage to the plants, Solanum” value with Solanum was determined as 100%. Further, in the data set on wheat, the “degree of damage to the plants, wheat” value is listed as 0%. In addition, the “degree of damage to the plants, Abutilon” value with Abutilon was determined as 100%. Moreover, the “degree of damage to the plants, Galium” value in the data set on Galium worked out at 100%. Further, the “degree of damage to the plants, Sinapis” value in the data set on Sinapis is 100%.

Take `CC(=O)Nc1cc(Cl)ccc1-n1c(=O)cc(C(F)(F)F)n(C)c1=O` [Example 20]: the “degree of damage … Avena fatua” value with Avena fatua is recorded as 100%. Moreover, the “degree of damage to the plants, Lolium” value with Lolium turned out to be 100%. Besides, the “degree of damage … Matricaria” value in the data set with Matricaria was found to be 100%. Also, the “degree of damage to the plants, Solanum” value with Solanum amounted to 100%. Moreover, the “degree of damage to the plants, wheat” value with wheat is given as 0%. For the same molecule, the “degree of damage to the plants, Abutilon” value in the data set with Abutilon came to 100%. In the data set on Galium, the “degree of damage to the plants, Galium” value was found to be 100%. The “degree of damage to the plants, Sinapis” value in the data set with Sinapis is listed as 100%.

On to `Cn1c(C(F)(F)F)cc(=O)n(-c2ccc(Cl)cc2NC(=O)c2ccc(Cl)cc2)c1=O` [Example 23], for which, in the data set with Avena fatua, the “degree of damage … Avena fatua” value is 100%. Besides, the “degree of damage to the plants, Lolium” value with Lolium came out at 100%. Also, the “degree of damage … Matricaria” value in the data set with Matricaria stood at 100%. Moreover, the “degree of damage to the plants, Solanum” value in the data set on Solanum was 100%. Besides, the “degree of damage to the plants, wheat” value with wheat was determined as 0%. Also, in the data set with Abutilon, the “degree of damage to the plants, Abutilon” value was found to be 100%. For the same molecule, in the data set with Galium, the “degree of damage to the plants, Galium” value is reported as 100%. In addition, in the data set on Sinapis, the “degree of damage to the plants, Sinapis” value was found to be 100%.

As for `CC(C)C(=O)Nc1cc(Cl)ccc1-n1c(=O)cc(C(F)(F)F)n(C)c1=O` [Example 24], in the data set on Avena fatua, the “degree of damage … Avena fatua” value is reported as 100%. For the same molecule, in the data set on Lolium, the “degree of damage to the plants, Lolium” value is reported as 100%. Besides, in the data set on Matricaria, the “degree of damage … Matricaria” value stood at 100%. Also, the “degree of damage to the plants, Solanum” value with Solanum was 100%. Moreover, the “degree of damage to the plants, wheat” value with wheat is reported as 0%. Moreover, the “degree of damage to the plants, Abutilon” value with Abutilon came to 100%. Besides, in the data set on Galium, the “degree of damage to the plants, Galium” value stood at 100%. Moreover, in the data set on Sinapis, the “degree of damage to the plants, Sinapis” value came to 100%.

As for `CCNC(=S)Nc1ccccc1-n1c(=O)n(C2CC2)c(=O)n1C` [Example 102], the “degree of damage … Avena fatua” value in the data set on Avena fatua is given as 100%. Further, the “degree of damage to the plants, Lolium” value with Lolium is listed as 100%. Also, in the data set on Matricaria, the “degree of damage … Matricaria” value was 100%. Further, the “degree of damage to the plants, Solanum” value in the data set on Solanum stood at 100%. Moreover, the “degree of damage to the plants, wheat” value in the data set on wheat is 0%. Further, the “degree of damage to the plants, Abutilon” value with Abutilon stood at 100%. The “degree of damage to the plants, Galium” value in the data set on Galium turned out to be 100%. For the same molecule, in the data set on Sinapis, the “degree of damage to the plants, Sinapis” value is recorded as 100%.
